Data published in ChEMBL document CHEMBL3779829, “Tandem virtual screening targeting the SRA domain of UHRF1 identifies a novel chemical tool modulating DNA methylation” (Eur J Med Chem, 2016).
Activity calls are given as the source filed them. The calls are words filed in the database; no cut-off is given here.

Assays:
Format in all cases: cell-based
[1] = biological target: T1, E3 ubiquitin-protein ligase UHRF1 (Homo sapiens) (UniProt Q96T88); test: Inhibition of UHRF1 in human MCF7 cells assessed as decrease in methylation at RAR beta exon at 15 uM after 72 hrs by methylation specific-PCR method
T1 sequence (whole entry): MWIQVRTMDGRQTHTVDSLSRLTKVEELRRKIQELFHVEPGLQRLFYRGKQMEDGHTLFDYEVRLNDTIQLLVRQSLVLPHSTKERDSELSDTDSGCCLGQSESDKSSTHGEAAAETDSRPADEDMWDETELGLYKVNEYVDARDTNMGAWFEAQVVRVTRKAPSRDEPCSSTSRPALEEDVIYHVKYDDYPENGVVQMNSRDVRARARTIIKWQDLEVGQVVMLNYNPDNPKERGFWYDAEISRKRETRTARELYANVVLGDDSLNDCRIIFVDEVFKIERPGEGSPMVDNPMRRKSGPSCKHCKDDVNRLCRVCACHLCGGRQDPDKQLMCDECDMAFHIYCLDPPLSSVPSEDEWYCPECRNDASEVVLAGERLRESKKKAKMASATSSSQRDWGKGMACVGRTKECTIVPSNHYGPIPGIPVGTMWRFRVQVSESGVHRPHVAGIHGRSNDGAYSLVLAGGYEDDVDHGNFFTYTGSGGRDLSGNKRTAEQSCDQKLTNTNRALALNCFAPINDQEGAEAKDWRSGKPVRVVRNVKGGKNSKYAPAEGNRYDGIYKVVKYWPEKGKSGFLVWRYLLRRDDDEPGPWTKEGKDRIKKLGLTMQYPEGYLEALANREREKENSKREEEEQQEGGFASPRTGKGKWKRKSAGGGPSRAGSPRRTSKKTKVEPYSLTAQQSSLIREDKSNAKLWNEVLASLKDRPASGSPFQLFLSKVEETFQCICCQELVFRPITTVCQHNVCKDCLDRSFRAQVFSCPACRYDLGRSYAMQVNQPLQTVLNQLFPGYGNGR

[2] = biological target: T1, E3 ubiquitin-protein ligase UHRF1 (Homo sapiens); test: Inhibition of UHRF1 in human MCF7 cells assessed as DNA global demethylation by measuring 5-methylcytosine level at 15 uM after 72 hrs by HPLC-MS/MS analysis (reference value: 1.7 +/- 0.36%); parameters: scale not given: the % may be the effect or the level left
[3] = biological target: T1, E3 ubiquitin-protein ligase UHRF1 (Homo sapiens); test: Inhibition of UHRF1 in human MCF7 cells assessed as reduction in global 5-methylcytosine level at 15 uM after 72 hrs by HPLC-MS/MS analysis relative to control
[4] = biological target: T1, E3 ubiquitin-protein ligase UHRF1 (Homo sapiens); test: Inhibition of UHRF1/DNMT1 protein interaction in human U251 cells assessed as reduction in 5-methylcytosine level at 15 uM after 72 hrs by ELISA relative to control; conditions: U-251
[5] = biological target: T1, E3 ubiquitin-protein ligase UHRF1 (Homo sapiens); test: Inhibition of UHRF1/DNMT1 protein interaction in human U251 cells at 15 uM after 4 hrs by DAPI staining based P-LISA; conditions: U-251

SMILES	RAR beta exon methylation decrease (activity call) [1]	Activity [2] [%]	inhibition [3] [%]	inhibition [4] [%]	inhibition [5] [%]	inhibition [1]
c1ccc2c(C3CCN(CCN4CCOCC4)C3)c[nH]c2c1 (stereo unspecified)	Active	0.99	–	–	–	–
CC(=O)c1c[nH]c(=O)[nH]c1=O	Active	0.74	56	–	–	–
C/C(NO)=C1\C=NC(=O)NC1=O	–	–	–	50	50	–
CN(C)c1c[nH]c(=O)[nH]c1=O	Active	0.86	–	–	–	–
CCOC(=O)c1cnc(=O)[nH]c1N	Active	0.87	–	–	–	–
Nc1ncn([C@@H]2O[C@H](CO)[C@@H](O)[C@H]2O)c(=O)n1	Active	0.88	48	–	–	–
O=C1NC(=O)C2(CC2)C(=O)N1	–	0.82	–	–	–	Active
